Here are results for 18 compounds from PubChem BioAssay (NCI).

What all share (assay): NCI-60 cell line screen, 48 h
In assay [1] the test system is SNB-78 CNS.
Assay [2] concerns MDA-MB-231 breast.
The test system of assay [3] is XF 498 CNS.
Assay [4] deals with MDA-N.
In assay [5] the test system is DMS 273 small cell lung.
The subject of assay [6] is DMS 114 small cell lung.
Assay [7] has as its system LXFL 529 NSCLC.
The subject of assay [8] is M19-MEL melanoma.
For assay [9], the system named is RXF-631 renal.

Molecules are shown by their SMILES.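 Each compound was tested at five concentrations against cells in 96-well plates for 48 hours. GI50 is the concentration that inhibits growth by half. Definition used: TGI = concentration required for complete inhibition of growth.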

For `CCC[CH2][Sn]([CH2]CCC)([O]C(=O)c1ccc(OC)c(OC)c1OC)[O][Sn]([CH2]CCC)([CH2]CCC)[O]C(=O)c1ccc(OC)c(OC)c1OC`, the GI50 in assay [1] is 0.0392 µM; in [2], 0.586 µM; in assay [3], 0.104 µM; in [4], 0.357 µM; in assay [5], 0.334 µM; in assay [6] it was 0.0281 µM. For the same compound, the values for the GI50 in assay [7] and in assay [8] were 0.02 µM and 0.21 µM, respectively. In addition, the TGI in assay [1] is 0.211 µM; in assay [2], 1.89 µM; in assay [3], 0.229 µM; in assay [4], 1.66 µM; in [5], 1.54 µM; in assay [6], 0.171 µM. The TGI in [7] is 0.0938 µM; in assay [8], 1.05 µM.
For `Cc1cc2c(=O)c3ccccc3[nH]c2c(C(N)=O)c1C`, the TGI in [1], in assay [3], in assay [9], in assay [6], in assay [7] and in assay [8] was over 100 µM throughout.
As for `CSc1nc(SC)c2c(C#N)[nH]nc2n1`, the TGI in assay [1], in [3], in assay [9], in assay [5], in assay [6] and in assay [8] was over 100 µM in each case.
As for `COc1ccc(OCC(=O)O)c2c1CCCC2=O`, the TGI in [1], in [3], in [9], in assay [5], in assay [6] and in assay [7] was over 100 µM throughout. The TGI in assay [8] was over 100 µM.
As to `Cc1c(N(C)C)ccc2c(=O)c3cccc(CC(=O)O)c3oc12`, the TGI in [1], in [2], in assay [9], in assay [4], in [5] and in [6] was over 100 µM throughout. The compound further came in with a TGI in assay [8] of over 100 µM.
`COC(=O)/C(C#N)=C1\N=NNN1c1ccc(OC)cc1`: the TGI in [1], in assay [9], in assay [5], in assay [6], in assay [7] and in assay [8] was over 100 µM throughout.
As to `COC(=O)/C(=N\NC(N)=S)C(C(=O)OC)C(=O)C(=O)Nc1ccc(C)cc1` (stereo not drawn), the TGI in assay [1], in assay [3], in assay [9], in assay [5], in assay [6] and in assay [7] was over 100 µM throughout. Moreover, the TGI in assay [8] was over 100 µM.
As to `COC(=O)C(=Cc1cc(OC)c(OC)c(OC)c1-c1cc2c(cc1C1(C)OCCS1)OCO2)C(=O)OC` (stereo not drawn), the TGI in assay [9] was over 100 µM; in assay [5] it was 75.1 µM; in assay [6] it was over 100 µM; in assay [7] it was over 100 µM; in assay [8] it was over 100 µM.
With `O=C(OC1CCC(=C2SCCCS2)[C@H]1C1SCCCS1)c1ccccc1` (stereo partly drawn), the TGI in [9], in assay [5], in assay [6], in assay [7] and in assay [8] was over 100 µM throughout.
Regarding `O=C(CC1C(=O)Nc2ccccc2S1=O)Nc1cc(Cl)ccc1Cl` (stereo not drawn), the TGI in [1], in assay [3], in assay [9], in assay [5], in [6] and in assay [7] was over 100 µM in each case. The compound further yielded a TGI in [8] of over 100 µM.
`COC(=O)C1CCCC2(C1)OCCO2` (stereo not drawn): the TGI in [1], in assay [9], in assay [5], in assay [6], in assay [7] and in assay [8] was over 100 µM throughout.
With `CN1CCC(=O)/C(=C/c2ccccc2)C1`, the TGI in assay [1] amounted to 57.6 µM; in [3] it was 32.9 µM; in assay [9], 33.9 µM; in assay [5], 14.9 µM; in assay [6] it was 24 µM; in assay [7] it was 17.6 µM. In assay [8], this compound gave a TGI of 18.4 µM.
Turning to `COc1ccc(CCN(C)C2CCC(C#N)(c3ccc(OC)c(OC)c3)CC2)cc1OC` (stereo not drawn), the TGI in [3], in assay [9], in [5], in assay [7] and in assay [8] was over 100 µM in each case.
Take `COc1ccc2c(c1OCC(=O)O)C(=O)C(CCC(=O)O)CC2` (stereo not drawn): the TGI in [1], in assay [3], in assay [9], in assay [5], in [6] and in assay [7] was over 100 µM each time. This compound came in with a TGI in [8] of over 100 µM.
As for `Cc1ccccc1C(=O)c1cc(O)ccc1O`, the TGI in assay [1], in [3], in [9], in assay [5], in assay [6] and in assay [7] was over 100 µM throughout. In assay [8], this compound showed a TGI of over 100 µM.
As to `O=C(Nc1cccc(Cl)c1)C(=O)C(C(=O)c1ccc2ccccc2c1)C1OC(=O)c2ccccc21` (stereo not drawn), the TGI in assay [1] was 50.6 µM; in assay [9], 81.2 µM; in assay [5], 89.6 µM; in assay [6], 79.3 µM; in assay [7], 21.9 µM; in assay [8], 39.1 µM.
For `Cc1ccc2nc(/C(=C/c3ccc(/C=C(\NC(=O)c4ccccc4)c4nc5ccc(C)cc5[nH]4)c(C)c3)NC(=O)c3ccccc3)[nH]c2c1`, the TGI in [1] was 79.1 µM; in assay [3], 36.5 µM; in [9], 91.3 µM; in assay [5], over 100 µM; in assay [6], 69.6 µM; in [7], 12.2 µM. In addition, the TGI in assay [8] is 44.8 µM.
On to `CN(C)C(=S)/N=c1\sn(C)/c(=N\C(=S)N(C)C)n1C`, for which the TGI in [1] was over 100 µM; in assay [3], over 100 µM; in [9], over 100 µM; in [5] it was over 100 µM; in assay [7] it was over 100 µM; in [8], 69.7 µM.
